From paper PMC10515640, “Structure-Based Optimization of Covalent, Small-Molecule Stabilizers of the 14-3-3σ/ERα Protein–Protein Interaction from Nonselective Fragments” (Journal of the American Chemical Society, 2023)
Read-outs that look alike come from different tables or passages of the source.

Columns and labels:
[1] = molecular target: T1, 14-3-3σ (Homo sapiens, UniProt P31947); assay: Mass spectrometry dose response, compound binding to 14-3-3σ in the absence of peptide (apo); conditions: 100 nM compound, 100 nM 14-3-3σ
T1 construct: The 14-3-3 σ isoform (full-length for mass spectrometry and fluorescence anisotropy assays, ΔC for crystallography); made in house; host or cells: E. coli Rosetta 2(DE3)pLysS, pPROEX HTb vector
T1 sequence (P31947 1-248): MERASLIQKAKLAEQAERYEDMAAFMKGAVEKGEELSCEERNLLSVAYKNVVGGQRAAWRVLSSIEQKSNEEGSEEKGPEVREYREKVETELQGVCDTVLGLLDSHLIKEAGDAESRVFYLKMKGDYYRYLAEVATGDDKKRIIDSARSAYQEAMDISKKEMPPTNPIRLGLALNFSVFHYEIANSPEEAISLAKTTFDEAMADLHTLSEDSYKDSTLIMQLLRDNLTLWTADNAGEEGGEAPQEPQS
Outline: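 Covalent binding of compounds to Cys38 of full-length wild type human 14-3-3σ (100 nM) was measured by LC-MS without peptide present. Compounds from 50 mM DMSO stocks were serially diluted 3-fold and 1000 nl transferred to plates in TRIS buffer (10 mM, pH 8.0), 50 μl per well. Samples were desalted on a BEH-C4 column and analysed on a Xevo G2-XS Q-Tof at several time points.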

[2] = molecular target: T2, 14-3-3σ/ERα (Homo sapiens, UniProt P03372+P31947); assay: Mass spectrometry dose response, compound binding to 14-3-3σ in the presence of ERα phosphopeptide; conditions: 100 nM compound, 100 nM 14-3-3σ, ERα-peptide 2 µM
T2 construct: The 14-3-3 σ isoform (full-length for mass spectrometry and fluorescence anisotropy assays, ΔC for crystallography); made in house; host or cells: E. coli Rosetta 2(DE3)pLysS, pPROEX HTb vector
Outline: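 Covalent labeling of Cys38 on 14-3-3σ was tracked by LC-MS on a Waters Acquity UPLC/Xevo G2-XS Q-Tof, with samples desalted on a Protein BEH-C4 column. Full-length wild type 14-3-3σ (100 nM) plus ERα phosphopeptide was mixed with compound in 10 mM TRIS, pH 8.0, at 50 μl per well. Percent bound was measured at several time points.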

[3] = molecular target: T3, 14-3-3σ/C-RAF (Homo sapiens, UniProt P31947); assay: Mass spectrometry dose response, compound binding to 14-3-3σ in the presence of C-RAF phosphopeptide; conditions: 100 nM compound, 100 nM 14-3-3σ, C-RAF peptide 18 µM
T3 construct: The 14-3-3 σ isoform (full-length for mass spectrometry and fluorescence anisotropy assays, ΔC for crystallography); made in house; host or cells: E. coli Rosetta 2(DE3)pLysS, pPROEX HTb vector
T3 sequence (P31947 1-248): T1 sequence (P31947 1-248)
Outline: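 Covalent binding of compounds to the native Cys38 of 14-3-3σ was monitored by LC-MS on a Waters Acquity UPLC/Xevo G2-XS Q-Tof, with samples desalted on a BEH-C4 column. Full-length wild type 14-3-3σ (100 nM) with C-RAF peptide in TRIS buffer (10 mM, pH 8.0) was incubated with compound dose series at room temperature.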

[4] = molecular target: T2, 14-3-3σ/ERα; assay: Fluorescence anisotropy compound titration, FAM-labeled ERα peptide; assay type: binding; conditions: for EC50: 10 nM ERα-FAM labeled peptide, 1 µM 14-3-3σ, overnight incubation (24 h)
Outline: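 Fluorescence anisotropy compound titration measuring stabilization of the 14-3-3σ/ERα interaction: compounds were titrated in a 2-fold dilution series (starting at 500 or 1000 µM) into a mix of 10 nM fluorescein-labeled ERα peptide and 1 µM 14-3-3σ (about EC25 of the complex) in HEPES buffer with 1% DMSO, read after overnight incubation at room temperature; EC50 from 4PL fitting.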

[5] = molecular target: T3, 14-3-3σ/C-RAF; assay: Fluorescence anisotropy compound titration, FAM-labeled C-RAF peptide; assay type: binding; conditions: 10 nM C-RAF-FAM labeled peptide, 5 µM 14-3-3σ, overnight incubation; read-out: EC50 value C-RAF (FA compound titration)
Outline: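 A fluorescence anisotropy compound titration measured how compounds stabilize binding of 14-3-3σ to a fluorescein-labeled C-RAF peptide. Compounds were diluted 2-fold, from 500 or 1000 µM, into 10 nM labeled peptide with 5 µM 14-3-3σ, roughly its EC25, in HEPES buffer with 1% DMSO. Plates were read after overnight incubation at room temperature. EC50 values came from 4PL fits over three independent experiments.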

[6] = molecular target: T2, 14-3-3σ/ERα; assay: Fluorescence anisotropy protein titration, FAM-labeled ERα peptide; assay type: binding; conditions: 10 nM FAM-ERα peptide; for X Fold stabilization (100 µM compound) of 14-3-3σ/ERα: versus DMSO reference; for Kd: 100 µM compound, overnight incubation
Protocol: To evaluate compound-mediated stabilization of the 14-3-3σ/ERα complex directly, FA protein titrations were performed at a saturating concentration of compound. FA protein titrations allowed the quantification of the cooperative effect by comparing the apparent dissociation constants (appKD) of the binary and ternary complexes. 14-3-3σ was titrated into 10 nM FAM-labeled ERα peptide in the presence of DMSO or 100 μM of the compounds (Table S4). […]
diluted in buffer (10 mM HEPES, pH 7.5, 150 mM NaCl, 0.1% Tween20, 1 mg/mL Bovine Serum Albumin (BSA; Sigma-Aldrich). Final DMSO in the assay was always 1%. […]
Protein titrations were made by titrating 14-3-3σ in a 2-fold dilution series (starting at 300 µM) to a mix of fluorescein-labeled peptide (10 nM) and DMSO or compound (100 µM). Fluorescence anisotropy measurements were performed after overnight incubation at room temperature. […]
Wells containing only FAM-peptide were used to set as G-factor at 35 mP. Data reported are at endpoint. EC50 and apparent Kd values were obtained from fitting the data with a four-parameter logistic model (4PL) in GraphPad Prism 7 for Windows. Data was obtained and averaged based on either three (compound titrations) or two (protein titrations) independent experiments.

[7] = molecular target: T3, 14-3-3σ/C-RAF; assay: Fluorescence anisotropy compound titration, FAM-labeled C-RAF peptide; assay type: binding; conditions: EC50 value C-RAF (FA compound titration), 10 nM C-RAF-FAM labeled peptide, 5 µM 14-3-3σ, overnight incubation
[8] = read-out: EC50 value ERα (FA compound titration)

Row | Structure (SMILES) | Percentage (%) bound of compound to 14-3-3σ, APO 1h [1] [%] | Percentage (%) bound of compound to 14-3-3σ, APO 8h [1] [%] | Percentage (%) bound of compound to 14-3-3σ, APO 16h [1] [%] | Percentage (%) bound of compound to 14-3-3σ, APO 24h [1] [%] | Percentage (%) bound of compound to 14-3-3σ, ERα 1h [2] [%] | Percentage (%) bound of compound to 14-3-3σ, ERα 8h [2] [%] | Percentage (%) bound of compound to 14-3-3σ, ERα 16h [2] [%] | Percentage (%) bound of compound to 14-3-3σ, ERα 24h [2] [%] | Percentage (%) bound of compound to 14-3-3σ, CRAF 1h [3] [%] | Percentage (%) bound of compound to 14-3-3σ, CRAF 8h [3] [%] | Percentage (%) bound of compound to 14-3-3σ, CRAF 24h ([3]; 24h) [%] | Percentage (%) bound of compound to 14-3-3σ, CRAF 24h ([3]; head prints 24h) [%] | EC50 [4, 8] [µM] | EC50 [5] [µM] | X Fold stabilization (100 µM compound) of 14-3-3σ/ERα [6] [fold] | Kd [6] [µM] | EC50 ([4]; EC50 value ERα (FA compound titration)) [µM] | selectivity for ERα (over C-RAF, FA EC50) ([4]; FA compound titrations) | EC50 [7] [µM]
1 | CC1CC(Nc2ccc(Cl)cc2)(C(=O)NCC2CC3(CCN(C(=O)CCl)CC3)C2)CC(C)O1 (stereo not drawn) [compound 180] | 1.4 | 2.9 | 7.3 | 11.5 | 40.8 | 50.1 | 84.4 | 96.1 | 0 | 2.5 | 8.5 | 4.5 | 10 ± 2 | > 150 | 7 | 0.192 |  |  | 
2 | O=C(CCl)N1CCC2(CC1)CCN(C(=O)C1(Nc3ccc(Cl)cc3)CCOCC1)CC2 [compound 170] | 1.0 | 1.8 | 3.4 | 5.3 | 38.2 | 68.1 | 86.2 | 94.0 | 3.6 | 8.0 | 19.7 | 12.1 | 8 ± 1 | 58 ± 11 | 12 | 0.119 |  |  | 
3 | O=C(CCl)NC1CC2(CCN(C(=O)C3(Nc4ccc(Cl)cc4)CCOCC3)CC2)C1 [compound 166] | 1.2 | 3.2 | 5.5 | 13.3 | 32.6 | 60.3 | 87.6 | 94.0 | 1.8 | 4.0 | 23.3 | 11.8 | 6 ± 0.3 | 77 ± 5 | 13 | 0.16 |  |  | 
4 | O=C(CCl)NCC1CCN(C(=O)C2(Nc3ccc(Cl)cc3)CCCC2)CC1 [compound 118] | 0 | 0 | 0.8 | 13.0 | 11.2 | 24.1 | 60.1 | 96.6 | 2.9 | 3.4 | 23.7 | 11.5 |  |  |  |  | 5 ± 0.4 | greater than 30 fold | > 150

Continued by falling EC50 [4, 8], values first:

Row | Percentage (%) bound of compound to 14-3-3σ, APO 1h [1] [%] | Percentage (%) bound of compound to 14-3-3σ, APO 8h [1] [%] | Percentage (%) bound of compound to 14-3-3σ, APO 16h [1] [%] | Percentage (%) bound of compound to 14-3-3σ, APO 24h [1] [%] | Percentage (%) bound of compound to 14-3-3σ, ERα 1h [2] [%] | Percentage (%) bound of compound to 14-3-3σ, ERα 8h [2] [%] | Percentage (%) bound of compound to 14-3-3σ, ERα 16h [2] [%] | Percentage (%) bound of compound to 14-3-3σ, ERα 24h [2] [%] | Percentage (%) bound of compound to 14-3-3σ, CRAF 1h [3] [%] | Percentage (%) bound of compound to 14-3-3σ, CRAF 8h [3] [%] | Percentage (%) bound of compound to 14-3-3σ, CRAF 24h ([3]; 24h) [%] | Percentage (%) bound of compound to 14-3-3σ, CRAF 24h ([3]; head prints 24h) [%] | EC50 [4, 8] [µM] | EC50 [5] [µM] | X Fold stabilization (100 µM compound) of 14-3-3σ/ERα [6] [fold] | Kd [6] [µM] | Structure (SMILES) | EC50 ([4]; EC50 value ERα (FA compound titration)) [µM] | selectivity for ERα (over C-RAF, FA EC50) ([4]; FA compound titrations) | EC50 [7] [µM]
5 | 0.9 | 1.7 | 2.4 | 2.5 | 24.6 | 36.8 | 77.5 | 96.4 | 0 | 0.5 | 5.7 | 2.0 | 12 ± 1 | 86 ± 11 | 15 | 0.094 | CC1CC(Nc2ccc(Cl)cc2)(C(=O)N2CCC(CNC(=O)CCl)CC2)CC(C)O1 (stereo not drawn) [compound 178] |  |  | 
6 | 5.6 | 11.2 | 22.6 | 40.5 | 42.3 | 80.4 | 96.6 | 99.8 | 6.0 | 13.4 | 49.6 | 27.1 | 4 ± 1 | 57 ± 5 | 18 | 0.077 | O=C(CCl)N1CCC2(CC1)CC(NC(=O)C1(Nc3ccc(Cl)cc3)CCOCC1)C2 [compound 163] |  |  | 
7 | 0 | 0 | 1.0 | 2.0 | 9.5 | 19.6 | 56.8 | 85.2 | 1.1 | 2.9 | 10.5 | 7.4 | 2 ± 0.3 | > 150 | 19 | 0.077 | O=C(CCl)NCC1CCN(C(=O)C2(Nc3ccc(Cl)cc3)CCOCC2)CC1 [compound 127] |  |  | 
